The molecules below were run against T1, IDO1 (Homo sapiens, UniProt P14902) (assay: Cell-based (HeLa) assay for measurement of IDO1 inhibition (kynurenine levels in supernatant after IFNγ induction)). Conditions: HeLa cells, IFNγ-induced IDO1, kynurenine in supernatant after 48 hour incubation; geometric mean of a minimum of four determinations.
T1 construct: HeLa cells were treated with a test compound in the presence of IFNγ, which induces IDO1 expression; host or cells: H1-HeLa cells, IDO1 induced with IFNγ
T1 sequence (P14902 whole entry): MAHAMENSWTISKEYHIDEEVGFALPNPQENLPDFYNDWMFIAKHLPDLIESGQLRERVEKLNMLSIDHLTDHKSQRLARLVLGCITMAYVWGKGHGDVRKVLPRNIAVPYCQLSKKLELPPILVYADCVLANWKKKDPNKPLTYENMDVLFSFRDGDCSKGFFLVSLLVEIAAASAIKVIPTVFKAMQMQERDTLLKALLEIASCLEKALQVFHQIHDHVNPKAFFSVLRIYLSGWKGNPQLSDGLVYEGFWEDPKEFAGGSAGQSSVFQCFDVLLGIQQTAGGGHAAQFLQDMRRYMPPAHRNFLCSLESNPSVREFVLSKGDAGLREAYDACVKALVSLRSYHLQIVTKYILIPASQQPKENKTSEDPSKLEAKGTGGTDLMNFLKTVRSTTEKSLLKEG
Procedure, shortened: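 IDO1 activity is read as kynurenine released into the medium, detected with Ehrlich's reagent (p-dimethylaminobenzaldehyde) at 480 nm after TCA treatment. HeLa cells were exposed 48 h to compounds in 0.5% DMSO alongside IFNγ induction. Values normalized to no-IFNγ and IFNγ controls; four-parameter EC50 given as geometric mean of ≥4 determinations.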
For `O/N=C(\Nc1ccc(F)c(Cl)c1)c1ccnc2nc(CCN3CCCCCC3)[nH]c12` [Example 258, 2-(2-(azepan-1-yl)ethyl)-N-(3-chloro-4-fluorophenyl)-N′-hydroxy-1H-imidazo[4,5-b]pyridine-7-carboximidamide], the EC50 was 844 nM.
`O/N=C(\Nc1ccc(F)c(Cl)c1)c1ccnc2nc(CCN3CCC3)[nH]c12` [Example 259, 2-(2-(azetidin-1-yl)ethyl)-N-(3-chloro-4-fluorophenyl)-N′-hydroxy-1H-imidazo[4,5-b]-pyridine-7-carboximidamide] was tested, and the EC50 was 1300 nM.
Work on `O/N=C(\Nc1ccc(F)c(Cl)c1)c1ccnc2nc(CCN3CC[C@@H](O)C3)[nH]c12` [Example 260, (R)—N-(3-chloro-4-fluorophenyl)-N′-hydroxy-2-(2-(3-hydroxypyrrolidin-1-yl)ethyl)-1H-imidazo[4,5-b]pyridine-7-carboximidamide] yielded an EC50 of 3210 nM.
With `O/N=C(\Nc1ccc(F)c(Cl)c1)c1ccnc2nc(CCN3CC[C@H](O)C3)[nH]c12` [Example 261, (S)—N-(3-chloro-4-fluorophenyl)-N′-hydroxy-2-(2-(3-hydroxypyrrolidin-1-yl)ethyl)-1H-imidazo[4,5-b]pyridine-7-carboximidamide] the EC50 was 3450 nM.
With `O/N=C(\Nc1ccc(F)c(Cl)c1)c1ccnc2nc(CCN3CCC(O)CC3)[nH]c12` [Example 262, N-(3-chloro-4-fluorophenyl)-N′-hydroxy-2-(2-(4-hydroxypiperidin-1-yl)ethyl)-1H-imidazo[4,5-b]pyridine-7-carboximidamide] the EC50 was 3240 nM.
With `CN(C)CCc1nc2nccc(/C(=N/O)Nc3ccc(F)c(Br)c3)c2[nH]1` [Example 263, N-(3-bromo-4-fluorophenyl)-2-(2-(dimethylamino)ethyl)-N′-hydroxy-1H-imidazo[4,5-b]pyridine-7-carboximidamide] the EC50 was 559 nM.
In the case of `CN(C)CCc1nc2nccc(/C(=N/O)Nc3cccc(Cl)c3)c2[nH]1` [Example 264, N-(3-chlorophenyl)-2-(2-(dimethylamino)ethyl),N′-hydroxy-1H-imidazo[4,5-b]pyridine-7-carboximidamide], the EC50 is reported as 722 nM.
For `CN(C)CCc1nc2nccc(/C(=N/O)Nc3cccc(Br)c3)c2[nH]1` [Example 265, N-(3-bromophenyl)-2-(2-(dimethylamino)ethyl)-N′-hydroxy-1H-imidazo[4,5-b]pyridine-7-carboximidamide], the EC50 was 501 nM.
With `CS(=O)(=O)NCCc1nc2nccc(/C(=N/O)Nc3ccc(F)c(Cl)c3)c2[nH]1` [Example 266, N-(3-chloro-4-fluorophenyl)-N′-hydroxy-2-(2-(methylsulfonamido)ethyl)-1H-imidazo[4,5-b]pyridine-7-carboximidamide] the EC50 was over 10000 nM.
In the case of `NS(=O)(=O)NCCc1nc2nccc(/C(=N/O)Nc3ccc(F)c(Cl)c3)c2[nH]1` [Example 267, N-(3-chloro-4-fluorophenyl)-N′-hydroxy-2-(2-(sulfamoylamino)ethyl)-1H-imidazo[4,5-b]pyridine-7-carboximidamide], the EC50 is reported as over 10000 nM.
In the case of `O/N=C(\Nc1cccc(Cl)c1)c1ccnc2nc(CCN3CCCC3)[nH]c12` [Example 268, N-(3-chlorophenyl)-N′-hydroxy-2-(2-(pyrrolidin-1-yl)ethyl)-1H-imidazo[4,5-b]pyridine-7-carboximidamide], the EC50 is reported as 952 nM.
`O/N=C(\Nc1cccc(Br)c1)c1ccnc2nc(CCN3CCCC3)[nH]c12` [Example 269, N-(3-bromophenyl)-N′-hydroxy-2-(2-(pyrrolidin-1-yl)ethyl)-1H-imidazo[4,5-b]pyridine-7-carboximidamide] showed an EC50 of 979 nM.
`CC(=O)NCCc1nc2nccc(/C(=N/O)Nc3ccc(F)c(Cl)c3)c2[nH]1` [Example 270, N-(2-(7-(N-(3-chloro-4-fluorophenyl)-N′-hydroxycarbamimidoyl)-1H-imidazo[4,5-b]pyridin-2-yl)ethyl)acetamide] was tested, and the EC50 was over 10000 nM.
Work on `O/N=C(\Nc1cccc(Cl)c1)c1ccnc2nc(CCN3CCCCC3)[nH]c12` [Example 271, N-(3-chlorophenyl)-N′-hydroxy-2-(2-(piperidin-1-yl)ethyl)-1H-imidazo[4,5-b]pyridine-7-carboximidamide] yielded an EC50 of 602 nM.
`O/N=C(\Nc1cccc(Br)c1)c1ccnc2nc(CCN3CCCCC3)[nH]c12` [Example 272, N-(3-bromophenyl)-N′-hydroxy-2-(2-(piperidin-1-yl)ethyl)-1H-imidazo[4,5-b]pyridine-7-carboximidamide] gave an EC50 of 477 nM.
Molecule `COC(=O)NCCc1nc2nccc(/C(=N/O)Nc3ccc(F)c(Cl)c3)c2[nH]1` [Example 273, Methyl (2-(7-(N-(3-chloro-4-fluorophenyl)-N′-hydroxycarbamimidoyl)-1H-imidazo[4,5-b]pyridin-2-yl)ethyl)carbamate] has an EC50 of over 10000 nM.
Work on `COc1ccc(CNCCc2nc3nccc(/C(=N/O)Nc4ccc(F)c(Cl)c4)c3[nH]2)c(OC)c1` [Example 274, N-(3-chloro-4-fluorophenyl)-2-(2-((2,4-dimethoxybenzyl)amino)ethyl)-N′-hydroxy-1H-imidazo[4,5-b]pyridine-7-carboximidamide] yielded an EC50 of 1970 nM.
In the case of `O/N=C(\Nc1ccc(F)c(Cl)c1)c1ccnc2nc(CCN3CCC(Cc4ccccc4)CC3)[nH]c12` [Example 275, 2-(2-(4-benzylpiperidin-1-yl)ethyl)-N-(3-chloro-4-fluorophenyl),N′-hydroxy-1H-imidazo[4,5-b]pyridine-7-carboximidamide], the EC50 is reported as 675 nM.
In the case of `O/N=C(\Nc1ccc(F)c(Cl)c1)c1ccnc2nc(CCN3CC4CCCC(C4)C3)[nH]c12` [Example 276, 2-(2-(3-azabicyclo[3.3.1]nonan-3-yl)ethyl)-N-(3-chloro-4-fluorophenyl)-N′-hydroxy-1H-imidazo[4,5-b]pyridine-7-carboximidamide], the EC50 is reported as 618 nM.
With `O/N=C(\Nc1ccc(F)c(Cl)c1)c1ccnc2nc(CCN3CC4CCC(C4)C3)[nH]c12` [Example 277, 2-(2-(3-azabicyclo[3.2.1]octan-3-yl)ethyl)-N-(3-chloro-4-fluorophenyl)-N′-hydroxy-1H-imidazo[4,5-b]pyridine-7-carboximidamide] the EC50 was 576 nM.
`CN1CCCC(Nc2nc3nccc(/C(=N/O)Nc4ccc(F)c(Cl)c4)c3[nH]2)C1` (stereo not drawn) [Example 278, N-(3-chloro-4-fluorophenyl)-N′-hydroxy-2-((1-methylpiperidin-3-yl)amino)-1H-imidazo[4,5-b]pyridine-7-carboximidamide] showed an EC50 of 1070 nM.
`O/N=C(\Nc1ccc(F)c(Cl)c1)c1ccnc2nc(NCCN3CC[C@H](O)C3)[nH]c12` [Example 279, (S)—N-(3-chloro-4-fluorophenyl)-N′-hydroxy-2-((2-(3-hydroxypyrrolidin-1-yl)ethyl)amino)-1H-imidazo[4,5-b]pyridine-7-carboximidamide] gave an EC50 of 5280 nM.
`O/N=C(\Nc1ccc(F)c(Cl)c1)c1ccnc2nc(N3CC[C@H](O)C3)[nH]c12` [Example 280, (S)—N-(3-chloro-4-fluorophenyl)-N′-hydroxy-2-(3-hydroxypyrrolidin-1-yl)-1H-imidazo[4,5-b]pyridine-7-carboximidamide] gave an EC50 of over 10000 nM.
`COCCN1CCC(Nc2nc3nccc(/C(=N/O)Nc4ccc(F)c(Cl)c4)c3[nH]2)C1` (stereo not drawn) [Example 281, N-(3-chloro-4-fluorophenyl)-N′-hydroxy-2-((1-(2-methoxyethyl)pyrrolidin-3-yl)amino)-1H-imidazo[4,5-b]pyridine-7-carboximidamide] gave an EC50 of 1260 nM.
Work on `CN1CCOCC1CNc1nc2nccc(/C(=N/O)Nc3ccc(F)c(Cl)c3)c2[nH]1` (stereo not drawn) [Example 282, N-(3-chloro-4-fluorophenyl)-N′-hydroxy-2-(((4-methylmorpholin-3-yl)methyl)amino)-1H-imidazo[4,5-b]pyridine-7-carboximidamide] yielded an EC50 of over 10000 nM.
`O/N=C(\Nc1ccc(F)c(Cl)c1)c1ccnc2nc(NCCN3CCCC3)[nH]c12` [Example 283, N-(3-chloro-4-fluorophenyl)-N′-hydroxy-2-((2-(pyrrolidin-1-yl)ethyl)amino)-1H-imidazo[4,5-b]pyridine-7-carboximidamide] was tested, and the EC50 was 2720 nM.
Molecule `CCNCc1nc2c(F)ccc(/C(=N/O)Nc3ccc(F)c(Cl)c3)c2[nH]1` [Example 287, N-(3-chloro-4-fluorophenyl)-2-((ethylamino)methyl)-4-fluoro-N′-hydroxy-1H-benzo[d]imidazole-7-carboximidamide] has an EC50 of 1670 nM.
`CN(C)Cc1nc2c(F)ccc(/C(=N/O)Nc3ccc(F)c(Cl)c3)c2[nH]1` [Example 288, N-(3-chloro-4-fluorophenyl)-2-((dimethylamino)methyl)-4-fluoro-N′-hydroxy-1H-benzo[d]imidazole-7-carboximidamide] gave an EC50 of 1820 nM.
`CC(C)NCc1nc2c(F)ccc(/C(=N/O)Nc3ccc(F)c(Cl)c3)c2[nH]1` [Example 289, N-(3-chloro-4-fluorophenyl)-4-fluoro-N′-hydroxy-2-((isopropylamino)methyl)-1H-benzo[d]imidazole-7-carboximidamide] showed an EC50 of 2230 nM.
For `CNCc1nc2c(F)ccc(/C(=N/O)Nc3ccc(F)c(Cl)c3)c2[nH]1` [Example 290, N-(3-chloro-4-fluorophenyl)-4-fluoro-N′-hydroxy-2-((methylamino)methyl)-1H-benzo[d]imidazole-7-carboximidamide], the EC50 was 1290 nM.
Molecule `NCc1nc2c(F)ccc(/C(=N/O)Nc3ccc(F)c(Cl)c3)c2[nH]1` [Example 291, 2-(aminomethyl)-N-(3-chloro-4-fluorophenyl)-4-fluoro-N′-hydroxy-1H-benzo[d]imidazole-7-carboximidamide] has an EC50 of 2650 nM.
`CC(C)(O)CNc1nc2c(F)c(F)cc(/C(=N/O)Nc3ccc(F)c(Cl)c3)c2[nH]1` [Example 292, N-(3-chloro-4-fluorophenyl)-4,5-difluoro-N′-hydroxy-2-((2-hydroxy-2-methylpropyl)amino)-1H-benzo[d]imidazole-7-carboximidamide] gave an EC50 of 3320 nM.
Molecule `CC(O)CNc1nc2c(F)c(F)cc(/C(=N/O)Nc3ccc(F)c(Cl)c3)c2[nH]1` (stereo not drawn) [Example 293, N-(3-chloro-4-fluorophenyl)-4,5-difluoro-N′-hydroxy-2-((2-hydroxypropyl)amino)-1H-benzo[d]imidazole-7-carboximidamide] has an EC50 of 3000 nM.

From patent US9951065B2 (Gilead Sciences, Inc., priority 2015, dated 2018)
